In patent publication EP4268824A1 (Manros Therapeutics, priority 2022, dated 2023):
Read-outs that look alike come from different tables or passages of the source.

Tests used:
[1] = tested on: alveolar macrophages; settings: Riazanski et al. 2015; cited from earlier work
[2] = target: T1, F508del-CFTR (Homo sapiens, UniProt P13569, DEL508-508); assay: CFTR activation assay: short-circuit current measurements (Ussing chamber) in CFBE cells treated 24 h with CFTR modulator(s) plus compound; assay type: cell-based; settings: for F508del-CFTR activity as percentage of F508del-CFTR activity in the presence of Trikafta alone (100%): CFE cells, with Trikafta
T1 construct: expressed in transfected cells; host or cells: CFBE41o- cells (CFBE F508del-CFTR), puromycin-selected
Experimental: • FIG 1. represents the conductance measurement as a function of time for assessing the activity of F508del-CFTR in CFBE cells using the Ussing chamber as set forth in example 13. Cells are incubated for 24 hours with either Trikafta® alone or Trikafta® + a compound of formula (I) as defined herein after. Conductance is measured as a function of time. […] This is the measure which are reported in all Tables shown below. • FIG 2. The correcting effect of Trikafta® on F508del-CFTR in a pulmonary epithelial cell line derived from a F508del-CFTR CF patient was tested as set forth in example 13 herein after in the presence of increasing concentrations of compound (44) as defined herein after and compound (107) as defined herein after. Dose-response curves were built from the activation and inhibition data (see FIG. 1). 100% represents the activity of Trikafta® alone. • FIG 3. […] CFE cells were treated with Trikafta® 100%, 33%, or 11%, in the absence or presence of 1 µM of compound (107). F508del-CFTR activity was monitored as described in the Experimental section and above. Activity is reported as percentage of δF508del-CFTR activity in the presence of Trikafta® alone (100%). The fold change over the activity of Trikafta® alone is indicated in parentheses. • FIG 4. The correcting effect of further CFTR modulators than Trikafta®, i.e. Galapagos compounds as defined herein after (GLPG 222 (G1), GLPG 1837 (G2), GLPG 2451 (G3)) (1 µM each) on F508del-CFTR in a pulmonary epithelial cell line derived from a F508del-CFTR CF patient was tested as set forth in example 13 herein after in the presence of increasing concentrations of compound (107) as defined herein after. Dose-response curves were built from the activation and inhibition data (see FIG. 1). 100% represents the activity of each CFTR modulator alone.
The activity of F508del-CFTR was indeed estimated according to the method described below in example 13. This method makes use of CFBE cells, an immortalized cell line generated from bronchial epithelium of a CF patient homozygous for F508del-CFTR [Kunzelmann, K. et al., 1993. An immortalized cystic fibrosis tracheal epithelial cell line homozygous for the F508del CFTR mutation. Am. J. Respir. Cell Mol. Biol. 8, 522-529.]. Cells are exposed for 24 hours to a combination of Trikafta® and a compound of formula (I) as defined herein after to be evaluated, and the activity of F508del-CFTR is measured by conductance in a Ussing chamber. The activation is initiated by addition of Forskolin (1 µM). […] All compounds tested were evaluated in combination with Trikafta®. In most instances, compounds were tested in triplicates at 0.1, 1 and 10 µM.
Wild-type CFBE cells (containing full-length, unmutated CFTR) are used as a reference.
F508del-CFTR expressing cells used in this present study were treated with CFTR modulators 24 h prior the experiments. The following CFTR modulators were used: Vx770 (Ivacaftor) (Selleckchem, S 1144) (Selleckchem, 24, rue des Tuileries, BP684, 67460 Souffelweyersheim, France), Vx445 (Elexacaftor) (Selleckchem, SE-S8851), Vx661 (Tezacaftor) (TargetMol, HY-15448) (TargetMol, Tebu-bio, 39 rue de Houdan, BP 15, 78612 Le-Perray-en-Yvelines cedex, France). Trikafta® is the combination of 1 µM Vx770, 3 µM Vx 445 and […] Vx661.
CFBE cell line stably expressing F508del-CFTR or WT-CFTR (CFBE WT-CFTR) were grown at 37°C in 5% CO2 - 95% air and media was replaced every 2 days.

[3] = tested on: F508del-CFTR; settings: Norez et al. 2014; cited from earlier work
[4] = target: CLK4 (Homo sapiens, UniProt Q9HAZ1); assay: Kinase inhibition, dose-response; assay type: biochemical
Source text: All compounds were additionally tested over a range of concentrations for their ability to inhibit a series of 14 kinases. […] Their F508del-CFTR activity is reported as percentage of F508del-CFTR activity in the presence of Trikafta alone (100%).

[5] = target: DYRK1A (Homo sapiens, UniProt Q13627); assay: Kinase inhibition, dose-response; assay type: biochemical; settings: > 10: no inhibition at 10 µM, the highest dose tested
Experimental: (§1) All compounds were additionally tested over a range of concentrations for their ability to inhibit a series of 14 kinases. IC50 values were calculated from the dose-response curves and are reported in µM. > 10, no inhibition at 10 µM, the highest dose tested (see table 6 below). [drawing 409] Table 5: CFE cells were treated with Trikafta in the presence of increasing concentrations of various compounds and their N7-methylated counterparts. Their F508del-CFTR activity is reported as percentage of F508del-CFTR activity in the presence of Trikafta alone (100%).

[6] = target: CK1α1 (Homo sapiens, UniProt P48729); assay: Kinase inhibition, dose-response; assay type: biochemical; settings: > 10: no inhibition at 10 µM, the highest dose tested
Experimental: as §1

[7] = target: CLK1 (Homo sapiens, UniProt P49759); assay: Kinase inhibition, dose-response; assay type: biochemical; settings: > 10: no inhibition at 10 µM, the highest dose tested
Experimental: as §1

[8] = target: CK1γ1 (Homo sapiens, UniProt Q9HCP0); assay: Kinase inhibition, dose-response; assay type: biochemical; settings: > 10: no inhibition at 10 µM, the highest dose tested
Experimental: as §1

[9] = target: CK1ε (Homo sapiens, UniProt P49674); assay: Kinase inhibition, dose-response; assay type: biochemical; settings: > 10: no inhibition at 10 µM, the highest dose tested
Experimental: as §1

[10] = target: CLK2 (Homo sapiens, UniProt P49760); assay: Kinase inhibition, dose-response; assay type: biochemical; settings: > 10: no inhibition at 10 µM, the highest dose tested
Experimental: as §1

[11] = target: CDK7 (Homo sapiens, UniProt P50613); assay: Kinase inhibition, dose-response; assay type: biochemical; settings: > 10: no inhibition at 10 µM, the highest dose tested
Experimental: as §1

[12] = target: CK1γ2 (Homo sapiens, UniProt P78368); assay: Kinase inhibition, dose-response; assay type: biochemical; settings: > 10: no inhibition at 10 µM, the highest dose tested
Experimental: as §1

[13] = target: CDK9 (Homo sapiens, UniProt P50750); assay: Kinase inhibition, dose-response; assay type: biochemical; settings: > 10: no inhibition at 10 µM, the highest dose tested
Experimental: as §1

[14] = target: CLK3 (Homo sapiens, UniProt P49761); assay: Kinase inhibition, dose-response; assay type: biochemical; settings: > 10: no inhibition at 10 µM, the highest dose tested
Experimental: as §1

[15] = target: CDK2 (Homo sapiens, UniProt P24941); assay: Kinase inhibition, dose-response; assay type: biochemical; settings: > 10: no inhibition at 10 µM, the highest dose tested
Experimental: as §1

[16] = target: CK1γ3 (Homo sapiens, UniProt Q9Y6M4); assay: Kinase inhibition, dose-response; assay type: biochemical; settings: > 10: no inhibition at 10 µM, the highest dose tested
Experimental: as §1

[17] = target: CK1δ (Homo sapiens, UniProt P48730); assay: Kinase inhibition, dose-response; assay type: biochemical; settings: > 10: no inhibition at 10 µM, the highest dose tested
Experimental: as §1

[18] = Bettayeb et al. 2008; Popowycz et al. 2009; cited from earlier work
[19] = target: kinase; settings: Bettayeb et al. 2008; Popowycz et al. 2009; cited from earlier work

T1 sequence (P13569 with tags, fused parts or gaps DEL508-508): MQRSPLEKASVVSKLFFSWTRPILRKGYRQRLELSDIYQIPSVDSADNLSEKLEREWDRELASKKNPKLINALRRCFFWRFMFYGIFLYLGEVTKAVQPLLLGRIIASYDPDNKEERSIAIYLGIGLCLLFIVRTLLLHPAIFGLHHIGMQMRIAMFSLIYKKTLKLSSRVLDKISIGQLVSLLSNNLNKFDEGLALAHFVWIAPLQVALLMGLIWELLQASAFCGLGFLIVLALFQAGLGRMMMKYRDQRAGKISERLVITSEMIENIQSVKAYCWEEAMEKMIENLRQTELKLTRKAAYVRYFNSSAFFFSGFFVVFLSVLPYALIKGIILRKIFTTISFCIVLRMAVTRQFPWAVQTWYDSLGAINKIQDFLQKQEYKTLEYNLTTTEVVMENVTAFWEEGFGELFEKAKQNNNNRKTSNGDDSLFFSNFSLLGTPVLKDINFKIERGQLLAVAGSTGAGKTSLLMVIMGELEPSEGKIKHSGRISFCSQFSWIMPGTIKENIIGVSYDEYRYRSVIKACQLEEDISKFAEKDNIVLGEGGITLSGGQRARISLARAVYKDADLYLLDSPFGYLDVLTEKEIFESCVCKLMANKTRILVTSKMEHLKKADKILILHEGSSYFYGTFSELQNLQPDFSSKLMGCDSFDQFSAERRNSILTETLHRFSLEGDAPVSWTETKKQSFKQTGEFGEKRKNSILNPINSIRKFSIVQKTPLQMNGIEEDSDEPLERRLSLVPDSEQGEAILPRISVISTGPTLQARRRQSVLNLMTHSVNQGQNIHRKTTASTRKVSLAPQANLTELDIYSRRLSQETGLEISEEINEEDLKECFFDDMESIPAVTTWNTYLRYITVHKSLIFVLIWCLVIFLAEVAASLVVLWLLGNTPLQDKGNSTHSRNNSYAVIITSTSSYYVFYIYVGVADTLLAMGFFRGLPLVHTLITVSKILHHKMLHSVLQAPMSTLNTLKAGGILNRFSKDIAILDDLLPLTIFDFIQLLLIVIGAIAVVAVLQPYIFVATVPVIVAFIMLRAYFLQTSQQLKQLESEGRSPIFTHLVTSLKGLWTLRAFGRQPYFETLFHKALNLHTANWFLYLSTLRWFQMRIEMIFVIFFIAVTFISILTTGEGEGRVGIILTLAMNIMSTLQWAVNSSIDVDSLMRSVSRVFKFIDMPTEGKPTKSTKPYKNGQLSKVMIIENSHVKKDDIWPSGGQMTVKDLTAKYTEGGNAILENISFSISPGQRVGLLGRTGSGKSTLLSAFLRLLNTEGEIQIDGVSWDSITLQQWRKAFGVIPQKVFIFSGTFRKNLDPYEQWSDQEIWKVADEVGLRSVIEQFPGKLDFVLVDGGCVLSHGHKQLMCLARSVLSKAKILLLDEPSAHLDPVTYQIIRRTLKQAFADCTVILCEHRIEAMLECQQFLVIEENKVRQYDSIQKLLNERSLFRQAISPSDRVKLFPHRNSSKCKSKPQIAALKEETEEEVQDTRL
Sequence of CDK7 (P50613 whole entry, species assumed): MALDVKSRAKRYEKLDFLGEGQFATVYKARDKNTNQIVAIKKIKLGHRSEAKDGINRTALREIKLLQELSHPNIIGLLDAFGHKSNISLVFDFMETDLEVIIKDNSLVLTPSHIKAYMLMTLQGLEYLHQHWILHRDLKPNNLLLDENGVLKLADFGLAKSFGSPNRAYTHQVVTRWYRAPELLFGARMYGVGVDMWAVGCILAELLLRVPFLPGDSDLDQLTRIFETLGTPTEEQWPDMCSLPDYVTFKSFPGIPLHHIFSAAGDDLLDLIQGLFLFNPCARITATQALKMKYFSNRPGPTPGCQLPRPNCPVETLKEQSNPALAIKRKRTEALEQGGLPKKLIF
Sequence of CDK7 (P51946 whole entry partner, species assumed): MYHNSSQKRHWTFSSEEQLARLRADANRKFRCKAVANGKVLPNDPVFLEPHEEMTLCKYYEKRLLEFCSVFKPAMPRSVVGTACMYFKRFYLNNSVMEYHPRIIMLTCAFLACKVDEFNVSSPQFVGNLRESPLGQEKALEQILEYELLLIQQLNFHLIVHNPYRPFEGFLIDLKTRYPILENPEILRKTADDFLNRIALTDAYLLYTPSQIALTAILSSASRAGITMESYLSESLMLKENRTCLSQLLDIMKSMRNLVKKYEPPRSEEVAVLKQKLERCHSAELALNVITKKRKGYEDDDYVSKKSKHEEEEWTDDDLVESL
Sequence of CDK7 (P51948 whole entry partner, species assumed): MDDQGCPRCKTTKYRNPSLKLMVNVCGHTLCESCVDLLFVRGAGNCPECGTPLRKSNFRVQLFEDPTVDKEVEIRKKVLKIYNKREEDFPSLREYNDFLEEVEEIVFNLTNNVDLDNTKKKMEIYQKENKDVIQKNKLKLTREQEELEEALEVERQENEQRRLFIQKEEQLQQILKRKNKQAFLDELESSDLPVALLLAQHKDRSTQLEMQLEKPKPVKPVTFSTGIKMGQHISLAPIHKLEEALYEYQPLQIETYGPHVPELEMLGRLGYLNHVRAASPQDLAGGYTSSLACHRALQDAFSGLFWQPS
Sequence of CK1γ3 (Q9Y6M4 whole entry): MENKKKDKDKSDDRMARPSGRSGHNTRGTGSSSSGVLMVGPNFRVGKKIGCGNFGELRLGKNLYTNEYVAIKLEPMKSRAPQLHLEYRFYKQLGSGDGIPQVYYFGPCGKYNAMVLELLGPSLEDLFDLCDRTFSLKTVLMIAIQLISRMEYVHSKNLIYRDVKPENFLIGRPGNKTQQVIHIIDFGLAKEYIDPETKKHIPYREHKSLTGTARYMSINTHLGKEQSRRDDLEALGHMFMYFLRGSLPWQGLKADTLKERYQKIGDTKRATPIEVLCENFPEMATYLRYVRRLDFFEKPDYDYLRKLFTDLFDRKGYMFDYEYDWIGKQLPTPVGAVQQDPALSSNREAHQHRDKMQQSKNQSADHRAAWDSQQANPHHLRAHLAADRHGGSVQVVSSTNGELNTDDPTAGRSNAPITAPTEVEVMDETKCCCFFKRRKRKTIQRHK
Sequence of CLK3 (P49761 whole entry, species assumed): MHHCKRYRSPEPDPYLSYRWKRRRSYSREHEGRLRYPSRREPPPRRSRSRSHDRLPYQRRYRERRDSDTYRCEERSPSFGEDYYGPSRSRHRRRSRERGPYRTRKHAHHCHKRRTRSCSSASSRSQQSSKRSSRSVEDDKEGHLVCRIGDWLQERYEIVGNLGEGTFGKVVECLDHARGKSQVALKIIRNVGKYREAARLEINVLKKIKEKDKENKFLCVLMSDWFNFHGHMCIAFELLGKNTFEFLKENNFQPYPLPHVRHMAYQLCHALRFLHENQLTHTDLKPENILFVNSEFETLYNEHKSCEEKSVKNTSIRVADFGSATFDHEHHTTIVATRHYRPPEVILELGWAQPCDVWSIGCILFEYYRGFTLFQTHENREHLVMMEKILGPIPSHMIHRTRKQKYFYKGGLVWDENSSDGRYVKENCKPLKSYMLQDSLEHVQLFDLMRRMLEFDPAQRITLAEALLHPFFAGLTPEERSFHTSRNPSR
Sequence of CLK4 (Q9HAZ1 whole entry, species assumed): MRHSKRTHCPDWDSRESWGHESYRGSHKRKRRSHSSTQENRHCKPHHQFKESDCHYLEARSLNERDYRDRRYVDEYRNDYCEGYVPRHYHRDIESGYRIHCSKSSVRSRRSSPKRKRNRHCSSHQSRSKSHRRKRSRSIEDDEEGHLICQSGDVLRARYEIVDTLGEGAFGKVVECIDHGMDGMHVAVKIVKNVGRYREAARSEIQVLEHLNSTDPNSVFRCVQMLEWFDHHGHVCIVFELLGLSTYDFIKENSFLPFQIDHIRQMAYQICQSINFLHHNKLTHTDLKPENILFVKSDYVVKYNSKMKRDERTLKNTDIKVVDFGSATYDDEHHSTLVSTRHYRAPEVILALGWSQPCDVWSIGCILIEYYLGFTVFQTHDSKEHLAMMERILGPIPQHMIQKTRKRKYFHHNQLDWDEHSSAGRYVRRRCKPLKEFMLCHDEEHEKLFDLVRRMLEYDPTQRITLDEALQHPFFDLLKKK
Sequence of CLK1 (P49759 whole entry): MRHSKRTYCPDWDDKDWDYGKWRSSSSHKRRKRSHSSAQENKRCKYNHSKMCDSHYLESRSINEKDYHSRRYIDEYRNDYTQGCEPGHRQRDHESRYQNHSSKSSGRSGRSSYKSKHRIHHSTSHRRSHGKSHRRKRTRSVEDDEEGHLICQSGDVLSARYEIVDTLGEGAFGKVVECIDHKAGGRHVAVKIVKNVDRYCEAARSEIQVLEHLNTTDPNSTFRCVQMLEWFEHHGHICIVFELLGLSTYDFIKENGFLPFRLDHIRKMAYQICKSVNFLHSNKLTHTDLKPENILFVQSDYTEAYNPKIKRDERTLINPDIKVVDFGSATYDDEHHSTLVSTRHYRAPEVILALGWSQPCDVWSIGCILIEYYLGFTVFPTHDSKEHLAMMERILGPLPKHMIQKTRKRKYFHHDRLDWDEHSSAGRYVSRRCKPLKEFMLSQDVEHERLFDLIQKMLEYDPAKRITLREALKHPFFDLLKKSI
Sequence of CK1α1 (P48729 whole entry): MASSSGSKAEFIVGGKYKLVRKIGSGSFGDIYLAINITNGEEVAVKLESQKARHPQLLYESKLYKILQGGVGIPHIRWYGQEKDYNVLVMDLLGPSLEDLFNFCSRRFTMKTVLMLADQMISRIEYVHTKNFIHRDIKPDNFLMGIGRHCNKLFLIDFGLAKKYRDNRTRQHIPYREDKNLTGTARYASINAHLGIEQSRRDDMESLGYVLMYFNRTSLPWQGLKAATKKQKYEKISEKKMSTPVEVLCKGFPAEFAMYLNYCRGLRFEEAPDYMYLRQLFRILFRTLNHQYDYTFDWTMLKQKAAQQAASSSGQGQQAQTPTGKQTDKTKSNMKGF

SMILES	IC50 [5] [µM]	IC50 [6] [µM]	IC50 [7] [µM]	IC50 [8] [µM]	IC50 [9] [µM]	IC50 [10] [µM]	IC50 [11] [µM]	IC50 [12] [µM]	IC50 [13] [µM]	IC50 [14] [µM]	IC50 [15] [µM]	IC50 [16] [µM]	IC50 [17] [µM]	F508del-CFTR activity as percentage of F508del-CFTR activity in the presence of Trikafta alone (100%) ([2]; concentration 0.1 µM) [%]	F508del-CFTR activity as percentage of F508del-CFTR activity in the presence of Trikafta alone (100%) ([2]; concentration 1 µM) [%]	F508del-CFTR activity as percentage of F508del-CFTR activity in the presence of Trikafta alone (100%) ([2]; concentration 10 µM) [%]	also measured
CC[C@H](CO)Nc1nc(NCc2ccccc2)c2ncn(C(C)C)c2n1 [roscovitine]	–	–	–	–	–	–	–	–	–	–	–	–	–	–	–	–	intra-phagolysosomal pH of alveolar macrophages [1]: reduce the intra-phagolysosomal pH of alveolar macrophages; activating or boosting activity on a human lung epithelium cell line with F508del-CFTR mutation, in combination with Trikafta® ([2]; result in words): no activating or boosting activity; correction of the defective function of F508del-CFTR [3]: partially correct the defective function of F508del-CFTR
CC(C)c1cnc2c(N(C)Cc3ccccc3)nc(NC3CCOCC3)nn12 [compound 49]	> 10	> 10	> 10	> 10	> 10	> 10	> 10	> 10	> 10	> 10	> 10	> 10	> 10	113.0	125.9	147.1	IC50 ([4]; read-out: IC50 CLK4; > 10: no inhibition at 10 µM, the highest dose tested): > 10 µM
CC[C@H](CO)Nc1nc(NCc2ccccc2)c2ncc(C(C)C)n2n1 [compound 6, (2R)-2-[[4-(Benzylamino)-7-isopropyl-imidazo[2,1-f][1,2,4]triazin-2-yl]amino]butan-1-ol]	–	–	–	–	–	–	–	–	–	–	–	–	–	–	–	–	antitumor properties [18]: modest antitumor properties; kinase inhibitory activity [19]: modest kinase inhibitory activity
CC(C)c1cnc2c(NCc3ccccc3)nc(N[C@@H]3CCOC3)nn12 [compound 19, N4-Benzyl-7-isopropyl-N2-[(3R)-tetrahydrofuran-3-yl]imidazo[2,1-f][1,2,4]triazine-2,4-diamine]	> 10	> 10	1.17	> 10	1.32	1.05	0.496	> 10	3.18	> 10	1.28	> 10	0.594	112.0	122.2	155.6	IC50 ([4]; > 10: no inhibition at 10 µM, the highest dose tested; read-out: IC50 CLK4): 1.84 µM
